For seven molecules, IC50 results are on record in patent publication US9994556B2, “Triazole modified coumarin and biphenyl amide-based HSP90 inhibitors” (THE UNIVERSITY OF KANSAS, priority 2014, dated 2018).

Structures are written as SMILES.

What all share (type): cell-based
One assay relates to SKBr3 cells. Description: MTS/PMS cell viability assay, SKBr3. To be noted: Homo sapiens, SK-BR-3; Table 1 coumarin-based triazoles; 72 hr; mean ± standard deviation, at least two experiments in triplicate; read-out: IC50 SKBr3. As for the experimental part: (§1) a) MTS/PMS Cell Viability Assay (SKBr3 and MCF-7 Cells)
(§2) Cells were maintained in a 1:1 mixture of Advanced DMEM/F12 (Gibco) supplemented with non-essential amino acids, L-glutamine (2 mM), streptomycin (500 μg/mL), penicillin (100 units/mL), and 10% FBS. Cells were grown to confluence in a humidified atmosphere (37° C., 5% CO2), seeded (2000/well, 100 μL) in 96-well plates, and allowed to attach overnight. Compound at varying concentrations in DMSO (1% DMSO final concentration) was added, and cells were returned to the incubator for 72 hr. At 72 hr, the number of viable cells was determined using an MTS/PMS cell proliferation kit (Promega) per the manufacturer's instructions. Cells incubated in 1% DMSO were used at 100% proliferation, and values were adjusted accordingly. IC50 values were calculated from separate experiments performed in triplicate using GraphPad Prism.

The subject of a further assay is MCF-7 cells. The assay can be described thus: MTS/PMS cell viability assay, MCF-7. To be noted: Homo sapiens, MCF7; Table 1 coumarin-based triazoles; 72 hr; mean ± standard deviation; read-out: IC50 MCF-7. As for the experimental part: as §1, §2
Another assay deals with MDA-MB-468LN cell line. Description: Promega CellTiter-Glo (CTG) luminescent assay, MDA-MB-468LN. Conditions: Homo sapiens; Table 1 coumarin-based triazoles; 72 hr; mean ± standard deviation. As for the experimental part: (§3) b) Promega CellTiter-Glo (CTG) Luminescent Assay
(§4) Antiproliferative activities against MDA-MB-468LN, MDA1986 and JMAR cell lines were performed with 384-well white plates with the Promega CellTiter-Glo (CTG) luminescent assay with 72 hr compound treatment. Data analysis was performed using GraphPad Prism. Selected data were further checked with MTS/PMS cell viability assay with 96-well plates, which correlated well with Promega CellTiter-Glo luminescent assay.
Background: In ATP-based viability assays light output follows the ATP content of the culture.

In the next assay the test system is MDA1986 cell line. The assay can be described thus: Promega CellTiter-Glo (CTG) luminescent assay, MDA1986. To be noted: Table 1 coumarin-based triazoles, 72 hr, mean ± standard deviation, read-out: IC50 MDA1986. As for the experimental part: as §3, §4
Another assay deals with JMAR cell line. The assay can be described thus: Promega CellTiter-Glo (CTG) luminescent assay, JMAR. To be noted: Table 1 coumarin-based triazoles, 72 hr, mean ± standard deviation. As for the experimental part: as §3, §4
For the next assay, the system named is PC3-MM2 cells. The assay can be described thus: Sulforhodamine B assay, PC3-MM2. Conditions: Homo sapiens, PC3MM2; Table 1 coumarin-based triazoles; mean ± standard deviation. As for the experimental part:
(§5) c) Sulforhodamine B Assay
(§6) The sulforhodamine B assay is used to measure drug-induced cytotoxicity and cell proliferation for large-scale drug-screening applications. Its principle is based on the ability of the protein dye sulforhodamine B to bind electrostatically on pH dependent protein basic amino acid residues of trichloroacetic acid-fixed cells. The aim is to evaluate samples showing selective growth inhibition or cell killing of particular tumor cell lines.
(§7) The SRB assay is performed by treating cells using a 10 point dose-response curve. The cells are fixed with trichloroacetic acid solution and stained with sulforhodamine B dye. The stained cells are then solubilized with 10 mM Tris buffer and read for absorbance at 565 nm.
(§8) Percentage growth is calculated at each of the drug concentration levels using the absorbance raw data.
(§9) Percentage growth inhibition is calculated as: [(Ti−Tz)/(C−Tz)]×100 for concentrations for which Ti≥Tz. [(Ti−Tz)/(Tz)]×100 for concentrations for which Ti<Tz.
(§10) Ti=Absorbance of wells at a given drug concentration level.
(§11) Tz=Absorbance time zero wells
(§12) C=Absorbance of untreated wells (media and cells only)
(§13) After growth inhibition values have been calculated, the data is plotted on Graphpad Prism software. Data is entered and plotted on a sigmoidal dose-response curve using non-linear regression.

The subject of the next assay is LNCaP cells. Description: Sulforhodamine B assay, LNCaP. Conditions: Homo sapiens, Table 1 coumarin-based triazoles, mean ± standard deviation. As for the experimental part: as §5, §6, §7, §8, §9, §10, §11, §12, §13

One may read the IC50 as the concentration at which inhibition is half-maximal. Take `Cc1c(OC2CCN(C)CC2)ccc2cc(NC(=O)c3cn(-c4ccc(Cl)cc4)nn3)c(=O)oc12` [4c, 1-(4-chlorophenyl)-N-(8-methyl-7-((1-methylpiperidin-4-yl)oxy)-2-oxo-2H-chromen-3-yl)-1H-1,2,3-triazole-4-carboxamide]: the 50% inhibitory concentration (IC50) is 0.58 ± 0.03 µM in the assay with SKBr3 cells; 2.04 ± 0.25 µM in the assay with MCF-7 cells; 0.81 ± 0.15 µM in the assay with MDA-MB-468LN cell line; 0.18 ± 0.11 µM with MDA1986 cell line; 0.43 ± 0.38 µM in the assay with JMAR cell line; 2.79 ± 0.49 µM with PC3-MM2 cells. Moreover, half-maximal inhibition with LNCaP cells (IC50) was put at 2.45 ± 0.47 µM.

As to `Cc1c(OC2CCN(C)CC2)ccc2cc(NC(=O)c3cn(-c4ccc(Br)cc4)nn3)c(=O)oc12` [4d, 1-(4-Bromophenyl)-N-(8-methyl-7-((1-methylpiperidin-4-yl)oxy)-2-oxo-2H-chromen-3-yl)-1H-1,2,3-triazole-4-carboxamide], the IC50 in the assay on SKBr3 cells came to 1.38 ± 0.05 µM; in the assay with MCF-7 cells, 5.07 ± 1.86 µM; with MDA-MB-468LN cell line, 2.8 ± 0.5 µM; with MDA1986 cell line, 2.9 ± 0.33 µM; in the assay on JMAR cell line, 3.6 ± 0.63 µM; in the assay on PC3-MM2 cells, 3.81 ± 4.99 µM. This molecule returned an IC50 with LNCaP cells of 15.2 ± 9.19 µM.

As to `Cc1ccc(-n2cc(C(=O)Nc3cc4ccc(OC5CCN(C)CC5)c(C)c4oc3=O)nn2)cc1` [4e, 1-(4-methylphenyl)-N-(8-methyl-7-((1-methylpiperidin-4-yl)oxy)-2-oxo-2H-chromen-3-yl)-1H-1,2,3-triazole-4-carboxamide], the IC50 in the assay on SKBr3 cells was 1.08 ± 0.05 µM; with MCF-7 cells, 1.38 ± 0.07 µM; with MDA-MB-468LN cell line, 4 ± 1.92 µM; in the assay with MDA1986 cell line, 0.29 µM; in the assay on JMAR cell line, 3.64 µM; in the assay with PC3-MM2 cells, over 100 µM. Also, in the assay with LNCaP cells, the IC50 was over 100 µM.

As for `Cc1c(OC2CCN(C)CC2)ccc2cc(NC(=O)c3cn(Cc4ccc(Cl)cc4)nn3)c(=O)oc12` [4g, 1-(4-Chlorobenzyl)-N-(8-methyl-7-((1-methylpiperidin-4-yl)oxy)-2-oxo-2H-chromen-3-yl)-1H-1,2,3-triazole-4-carboxamide], the IC50 with SKBr3 cells stood at 1.14 ± 0.19 µM; with MCF-7 cells, 1.44 ± 0.31 µM; with MDA-MB-468LN cell line, 2.2 ± 0.3 µM; in the assay on MDA1986 cell line it was 1.7 ± 0.52 µM; in the assay on JMAR cell line, 1.7 ± 0.2 µM; in the assay with PC3-MM2 cells it was 3.67 ± 1.38 µM. In the assay with LNCaP cells, it took 4.65 ± 0.71 µM to reach half-maximal inhibition (IC50).

As to `Cc1c(OC2CCN(C)CC2)ccc2cc(NC(=O)c3cn(Cc4ccc(Br)cc4)nn3)c(=O)oc12` [4h, 1-(4-Bromobenzyl)-N-(8-methyl-7-((1-methylpiperidin-4-yl)oxy)-2-oxo-2H-chromen-3-yl)-1H-1,2,3-triazole-4-carboxamide], the IC50 with SKBr3 cells amounted to 0.73 ± 0.01 µM; with MCF-7 cells, 1.36 ± 0.08 µM; in the assay with MDA-MB-468LN cell line, 2.1 ± 0.6 µM; in the assay on MDA1986 cell line it was 2 ± 0.5 µM; in the assay with JMAR cell line, 1.6 ± 0.31 µM; in the assay with PC3-MM2 cells it was 3.8 ± 1.42 µM. The molecule further yielded an IC50 in the assay on LNCaP cells of 4.96 ± 0.67 µM.

Regarding `Cc1ccc(Cn2cc(C(=O)Nc3cc4ccc(OC5CCN(C)CC5)c(C)c4oc3=O)nn2)cc1` [4i, 1-(4-Methylbenzyl)-N-(8-methyl-7-((1-methylpiperidin-4-yl)oxy)-2-oxo-2H-chromen-3-yl)-1H-1,2,3-triazole-4-carboxamide], the IC50 was 1.21 ± 0.07 µM in the assay with SKBr3 cells; 1.5 ± 0.19 µM with MCF-7 cells; 2.4 ± 0.25 µM in the assay on MDA-MB-468LN cell line; 1.5 ± 0.2 µM in the assay on MDA1986 cell line; 1.8 ± 0.95 µM in the assay with JMAR cell line; 7.32 ± 5.44 µM in the assay with PC3-MM2 cells. This molecule also came in with an IC50 in the assay on LNCaP cells of 7.24 ± 1.02 µM.

As for `Cc1c(OC2CCN(C)CC2)ccc2cc(NC(=O)c3cn(CCCc4ccccc4)nn3)c(=O)oc12` [4s, N-(8-methyl-7-((1-methylpiperidin-4-yl)oxy)-2-oxo-2H-chromen-3-yl)-1-(3-phenylpropyl)-1H-1,2,3-triazole-4-carboxamide], the IC50 in the assay with SKBr3 cells was 1.73 ± 0.05 µM; in the assay on MCF-7 cells, 1.65 ± 0.03 µM.
